Measured values published in ChEMBL document CHEMBL1132794, “Structure-based design of six novel classes of nonpeptide antagonists of the bradykinin B2 receptor” (Bioorg Med Chem Lett, 2000).

Target: T1, B2 bradykinin receptor (Homo sapiens, UniProt P30411)
T1 sequence (P30411 whole entry): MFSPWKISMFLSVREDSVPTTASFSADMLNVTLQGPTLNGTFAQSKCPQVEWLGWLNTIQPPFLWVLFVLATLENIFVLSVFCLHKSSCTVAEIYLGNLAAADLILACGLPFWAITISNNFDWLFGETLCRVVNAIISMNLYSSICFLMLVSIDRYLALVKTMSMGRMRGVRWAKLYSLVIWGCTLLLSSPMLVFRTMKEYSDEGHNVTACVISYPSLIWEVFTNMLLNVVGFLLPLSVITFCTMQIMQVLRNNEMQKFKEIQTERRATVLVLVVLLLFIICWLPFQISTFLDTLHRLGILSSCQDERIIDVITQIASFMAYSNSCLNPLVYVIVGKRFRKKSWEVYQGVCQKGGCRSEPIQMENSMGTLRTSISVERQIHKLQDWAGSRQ
Experiment: Compound was assayed for binding against the human Bradykinin receptor B2 expressed in CHO cells; 0.2-16
Assay type: cell-based
Details: not given; call rule not given here

Row | Compound | Kd [µM]
1 | N=C(N)NCCC[C@@H]1NC(=O)N2C3CCCCC3C[C@H]2C(=O)N2Cc3ccccc3C[C@@H]2C(=O)NCC[C@@H](NC(=O)CCc2ccccc2)C(=O)CCNC1=O (stereo partly specified) | 0.2

Same assay, conditions: cho

Row | Compound | Kd [µM]
2 | NCCCC[C@@H]1NC(=O)[C@H](c2ccccc2)NC(=O)[C@H](CNC(=O)Cc2ccccc2)NC(=O)[C@H]2Cc3ccccc3CN2C(=O)[C@@H]2CC3CCCCC3N2C(=O)[C@H](CN)NC1=O (stereo partly specified) | 0.2

Target: T1, B2 bradykinin receptor
Experiment: Compound was assayed for binding against the human Bradykinin receptor B2 expressed in CHO cells; NA means Inactive
Assay type: cell-based
Details: not given

Row | Compound | Kd
3 | NCCCC[C@H](C(=O)NCc1ccc(CN)cc1)n1cccc1C(=O)NCCc1ccccc1 | Not Active
4 | N=C(N)NC[C@H]1C[C@@H](OCc2ccccc2)CN1C(=O)c1ccccc1 | Not Active
5 | NC[C@H]1C[C@@H](OCc2ccccc2)CN1C(=O)c1ccccc1 | Not Active

Target: T1, B2 bradykinin receptor
Experiment: Compound was assayed for binding against the human Bradykinin receptor B2 expressed in CHO cells
Assay type: cell-based
Details: not given

Row | Compound | Kd [µM]
6 | NCc1cccc(Cn2ccc3c2C(=O)C(Cc2ccccc2)(Cc2ccccc2)CC3)c1 | 7.6
7 | NCCCN1C(=O)C(CN)N=C(c2ccccc2)c2cc(N(Cc3ccccc3)Cc3ccccc3)ccc21 (stereo unspecified) | 4.3
8 | NCc1ccc(CNC(=O)[C@@H](CN)n2cccc2CNC(=O)CC2CCCCC2)cc1 | 101
9 | NC(N)=NC[C@H]1C[C@@H](OCc2ccccc2)CN1C(=O)c1ccc2ccccc2c1 | 15
10 | N=C(N)NCC1N=C(c2ccccc2)c2cc(N(Cc3ccccc3)Cc3ccccc3)ccc2N(CCCN=C(N)N)C1=O (stereo unspecified) | 12
11 | NCc1ccc(CNC(=O)[C@@H](CN)n2cccc2CNC(=O)C(c2ccccc2)C2CCCCC2)cc1 (stereo partly specified) | 17
12 | CCCCc1ccnc([C@H](CC2CCCCC2)NC(=O)c2ccc(CN)cc2)c1 | 7.4
13 | N=C(N)NCCC1N=C(c2ccccc2)c2cc(N(Cc3ccccc3)Cc3ccccc3)ccc2N(CCCN=C(N)N)C1=O (stereo unspecified) | 4.5
14 | NCCCC[C@H](C(=O)NCc1ccc(CN)cc1)n1cccc1C(=O)NC(Cc1ccccc1)c1ccccc1 (stereo partly specified) | 28
15 | NCCCN1C(=O)C(CCN)N=C(c2ccccc2)c2cc(N(Cc3ccccc3)Cc3ccccc3)ccc21 (stereo unspecified) | 15
16 | CCCCc1ccnc([C@H](CC2CCCCC2)NC(=O)CCCCN)c1 | 62
17 | CCCCc1ccnc([C@H](CC2CCCCC2)NC(=O)c2ccc(CNC(=N)N)cc2)c1 | 5
18 | CCCCC1(CCCC)Oc2cccc(NC(=O)c3ccc(CN)cc3)c2O1 | 13
19 | NC[C@H]1C[C@@H](OCc2ccccc2)CN1C(=O)c1ccc2ccccc2c1 | 66
20 | CCCCc1ccnc([C@H](CC2CCCCC2)NC(=O)CCCCN(CCCC)CCCC)c1 | 23
21 | CCCCC1(CCCC)Oc2cccc(N(CCCN)C(=O)c3ccc(CN)cc3)c2O1 | 14
